The record followed here is paper PMC2852069 (Indian Journal of Pharmaceutical Sciences, 2008).

Values after ≈ are worked out from the molar mass of the structure shown. Where only a bound is given, the exact number is not on record here.

The subject of one data set is SARS-CoV. The data set can be described thus: microbe, parasite or virus in culture. Format: cell-based, Severe Acute Respiratory Syndrome corona virus (SARS-CoV). To be noted: for EC50: Severe acute respiratory syndrome coronavirus, Vero C1008, 72 h, read-out: EC50 (50% effective concentration required to reduce virus-induced cytopathicity by 50%). In general terms: Protection from cytopathic effect is a common read-out in antiviral testing.

Data set [1] concerns HCV RNA (HCV replicon in Huh 5-2 cells). Briefly: microbe, parasite or virus in culture. Format: cell-based, Hepatitis C Virus. To be noted: for EC50: Hepatitis C virus, Huh-5-2, 72 h, read-out: EC50 HCV RNA.
A short description of data set [2]: in vitro. The settings on record: African green monkey.
Data set [3] can be described thus: in vitro. To be noted: human, CC50 Cell growth.
Another data set deals with Huh 5-2 cells. The settings on record: human.

On to `Cc1cc(C)nc(NS(=O)(=O)c2ccc(/N=C3\C(=O)Nc4ccc(Br)cc43)cc2)n1` [SPIII-5Br], for which, in the data set with SARS-CoV, the “Maximum protection (%) (at 125 μg/ml)” value was found to be 2% and the EC50 is over 125 µg/mL. Also, in data set [1], the “EC50 HCV RNA” value came to 17 µg/mL (≈ 35 µM) and the EC50 was 19 µg/mL (≈ 39.1 µM). Also, the CC50 in “in vitro [2]” is over 125 µg/mL. In the data set “in vitro [3]”, the CC50 came to 42 µg/mL (≈ 86.4 µM). In addition, in the data set on Huh 5-2 cells, the “CC50 Cell growth” value is over 50 µg/mL.
For `Cc1cc(C)nc(NS(=O)(=O)c2ccc(/N=C3\C(=O)Nc4ccc(Cl)cc43)cc2)n1` [SPIII-5Cl], the “Maximum protection (%) (at 125 μg/ml)” value in the data set on SARS-CoV was found to be 10%. The EC50 is over 125 µg/mL in the data set on SARS-CoV and over 50 µg/mL in data set [1]. In addition, the CC50 is over 125 µg/mL in the data set “in vitro [2]” and over 50 µg/mL in “in vitro [3]”.
For `Cc1cc(C)nc(NS(=O)(=O)c2ccc(/N=C3\C(=O)Nc4ccc(F)cc43)cc2)n1` [SPIII-5F], in the data set on SARS-CoV, the “Maximum protection (%) (at 125 μg/ml)” value was 45%. Further, the EC50 in the data set on SARS-CoV was over 125 µg/mL; in data set [1], 6 µg/mL (≈ 14.1 µM). The values for the CC50 in the data set “in vitro [2]” and in the data set “in vitro [3]” were over 125 µg/mL and 42 µg/mL (≈ 98.7 µM), respectively. Further, in the data set on Huh 5-2 cells, the concentration without toxicity entry is “up to 42 μg/ml”.
Take `Cc1cc(C)nc(NS(=O)(=O)c2ccc(/N=C3\C(=O)Nc4ccccc43)cc2)n1` [SPIII-5H, 4-[(1,2-dihydro-2-oxo-3H-indol-3-ylidene)amino]-N(4,6-dimethyl-2-pyrimidiny)benzene sulphonamide]: in the data set with SARS-CoV, the “Maximum protection (%) (at 125 μg/ml)” value came to 22%. Moreover, the figures for the EC50 (in the data set with SARS-CoV; in data set [1]) were over 125 µg/mL and 17 µg/mL (≈ 41.7 µM), respectively. Also, the “EC50 HCV RNA” value in data set [1] was found to be 19 µg/mL (≈ 46.6 µM). Besides, the CC50 in the data set “in vitro [2]” was over 125 µg/mL; in the data set “in vitro [3]”, 42 µg/mL (≈ 103 µM). In addition, the “CC50 Cell growth” value in the data set on Huh 5-2 cells was over 50 µg/mL.
Turning to `Cc1ccc2c(c1)/C(=N/c1ccc(S(=O)(=O)Nc3nc(C)cc(C)n3)cc1)C(=O)N2` [SPIII-5Me], in the data set with SARS-CoV, the “Maximum protection (%) (at 125 μg/ml)” value is recorded as 12%. The EC50 in the data set with SARS-CoV was over 125 µg/mL; in data set [1], over 50 µg/mL. Also, the CC50 in the data set “in vitro [2]” was over 125 µg/mL; in the data set “in vitro [3]”, over 50 µg/mL.
Turning to `CC(=O)N1C(=O)/C(=N\c2ccc(S(=O)(=O)Nc3nc(C)cc(C)n3)cc2)c2ccccc21` [SPIII-NA], the “Maximum protection (%) (at 125 μg/ml)” value with SARS-CoV is recorded as 12%. The values for the EC50 (in the data set with SARS-CoV; in data set [1]) were over 125 µg/mL and over 50 µg/mL, respectively. In addition, the CC50 was over 125 µg/mL in “in vitro [2]” and over 50 µg/mL in “in vitro [3]”.
